Measured values reported in publication PMC9322761, “Design, Synthesis and Biological Characterization of Histone Deacetylase 8 (HDAC8) Proteolysis Targeting Chimeras (PROTACs) with Anti-Neuroblastoma Activity” (International Journal of Molecular Sciences, 2022).

system: SK-N-BE(2)-C cells; assay: Colony formation assay in neuroblastoma cells; type: cell-based, human; settings: 5 and 10 μM, treatment 96 h, then 6 days without treatment
Method: In order to measure the functional consequence of HDAC8 inhibition, two different cell lines were used: SK-N-BE(2)-C cells, which display MYCN amplification and non-functional p53; and IMR-32 cells having p53 wild type, which both respond with growth arrest and signs of neuronal differentiation upon knockdown or selective inhibition of HDAC8. Growth arrest was determined by colony formation and viability assays. Cells were treated with 5 and 10 μM of each of the CRBN_ based HDAC8 PROTACs having a triazole linker (CRBN_1d, CRBN_1e, CRBN_1f) for 96 h, followed by culturing for another 6 days without treatment (Figure 5A). This assesses whether the treatment impairs the clonogenic growth capacity of tumor cells, indicating effectiveness of compounds on the survival and proliferation of tumor cells.
In six-well plates, 500 cells were seeded and treated as indicated. Viable colonies were stained after a minimum of 10 days with crystal violet. For quantification, the mean intensity of each well of the 8-bit binary picture was measured with ImageJ software (U. S. National Institutes of Health, Bethesda, MD, USA; http://imagej.nih.gov/ij/ (accessed on 1 March 2022)).
Figure 5 (A) Neuroblastoma SK-N-BE(2)-C cells; Colony Assay, 10 days (compound treatment within first 96 h). Stained with crystal violet and quantified with ImageJ. (B,C) Trypan Blue assay for detection of dead cells. Neuroblastoma IMR-32 cells were either treated with 5 µM (B) or 10 µM (C). (D,E) Cell proliferation assessed via counting of viable cells. IMR-32 cells were either treated with 5 µM (D) or 10 µM (E) PROTACs. HDAC8i PCI-34501 served as a positive control, untreated (MEM) and solvent (DMSO) treated cells served as negative controls.

| SMILES | Effect on colony formation |
| --- | --- |
| Cc1ccc(C(=O)NO)cc1NCc1ccc(OCc2cn(CCCCCC(=O)Nc3cccc4c3C(=O)N(C3CCC(=O)NC3=O)C4=O)nn2)cc1 (stereo not drawn) [CRBN_1d] | strongest effect on colony formation |
| O=C1CCC(N2C(=O)c3cccc(NC(=O)CCCCCn4cc(COc5ccc(CNc6cc(C(=O)NO)ccc6Cl)cc5)nn4)c3C2=O)C(=O)N1 (stereo not drawn) [CRBN_1f] | inactive |

target: T1, HDAC8 (Homo sapiens, UniProt Q9BY41); assay: In vitro HDAC8 activity assay (Fluor de Lys-HDAC8); type: biochemical; set-up: made in house; settings: Table 1, PROTACs
T1 sequence (Q9BY41 1-377): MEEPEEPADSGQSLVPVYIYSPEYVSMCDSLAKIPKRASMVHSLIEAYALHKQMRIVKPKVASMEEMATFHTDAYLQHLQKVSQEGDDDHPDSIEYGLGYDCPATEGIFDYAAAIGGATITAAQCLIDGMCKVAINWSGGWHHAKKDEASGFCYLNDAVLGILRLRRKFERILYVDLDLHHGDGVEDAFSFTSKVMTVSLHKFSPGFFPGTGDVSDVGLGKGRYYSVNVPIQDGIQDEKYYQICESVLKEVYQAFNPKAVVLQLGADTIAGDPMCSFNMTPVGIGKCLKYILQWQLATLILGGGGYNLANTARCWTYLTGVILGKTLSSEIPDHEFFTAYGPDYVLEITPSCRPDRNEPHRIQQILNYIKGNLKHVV
Method: Recombinant hHDAC8 was produced by Romier et al. in Strasbourg. The HDAC8 activity assays were performed according to the commercial HDAC8 Fluorometric Drug Discovery Kit (Fluor de Lys(R)-HDAC8, BML-KI178) corresponding to the instructions of the manufacturer. As substrate a tetrapeptide connected to aminomethylcoumarin (AMC) H2N-Arg- His-Lys(Ac)-Lys(Ac)-AMC was synthesized as previously described. The enzyme was incubated for 90 min at 37 °C, with a substrate concentration of 50 µM and increasing concentrations of inhibitors. The stop-solution-containing inhibitor was added to stop the hHDAC8 activity, and Trypsin was added to release the AMC. The solution was incubated for 20 min at 37 °C to develop the assay.
(§1) Inhibition was measured at increasing concentration and IC50 was calculated by nonlinear regression with Origin 9.0G software.

| SMILES | IC50 |
| --- | --- |
| COc1ccc(C(=O)NO)cc1NC(=O)c1ccc(NC(=O)CCCCCNc2cccc3c2C(=O)N(C2CCC(=O)NC2=O)C3=O)cc1 (stereo not drawn) [CRBN_1a] | 90 ± 30 nM |
| Cc1ccc(C(=O)NO)cc1NCc1ccc(OCc2cn(CCCCCC(=O)Nc3cccc4c3C(=O)N(C3CCC(=O)NC3=O)C4=O)nn2)cc1 (stereo not drawn) [CRBN_1d] | 370 ± 50 nM |
| O=C1CCC(N2C(=O)c3cccc(NC(=O)CCCCCn4cc(COc5ccc(CNc6cc(C(=O)NO)ccc6Cl)cc5)nn4)c3C2=O)C(=O)N1 (stereo not drawn) [CRBN_1f] | 250 ± 30 nM |

same assay, conditions: selectivity index, HDAC6 over HDAC8

| SMILES | SI (HDAC6/HDAC8) |
| --- | --- |
| COc1ccc(C(=O)NO)cc1NC(=O)c1ccc(NC(=O)CCCCCNc2cccc3c2C(=O)N(C2CCC(=O)NC2=O)C3=O)cc1 (stereo not drawn) [CRBN_1a] | 2 |
| Cc1ccc(C(=O)NO)cc1NCc1ccc(OCc2cn(CCCCCC(=O)Nc3cccc4c3C(=O)N(C3CCC(=O)NC3=O)C4=O)nn2)cc1 (stereo not drawn) [CRBN_1d] | 18 |
| O=C1CCC(N2C(=O)c3cccc(NC(=O)CCCCCn4cc(COc5ccc(CNc6cc(C(=O)NO)ccc6Cl)cc5)nn4)c3C2=O)C(=O)N1 (stereo not drawn) [CRBN_1f] | 5 |

target: HDAC1 (Homo sapiens, UniProt Q13547); assay: In vitro HDAC inhibitory activity assay, recombinant HDAC1 (fluorogenic substrate ZMAL); type: biochemical; set-up: purchased BPS Biosciences; settings: not given
Sequence (Q13547 whole entry): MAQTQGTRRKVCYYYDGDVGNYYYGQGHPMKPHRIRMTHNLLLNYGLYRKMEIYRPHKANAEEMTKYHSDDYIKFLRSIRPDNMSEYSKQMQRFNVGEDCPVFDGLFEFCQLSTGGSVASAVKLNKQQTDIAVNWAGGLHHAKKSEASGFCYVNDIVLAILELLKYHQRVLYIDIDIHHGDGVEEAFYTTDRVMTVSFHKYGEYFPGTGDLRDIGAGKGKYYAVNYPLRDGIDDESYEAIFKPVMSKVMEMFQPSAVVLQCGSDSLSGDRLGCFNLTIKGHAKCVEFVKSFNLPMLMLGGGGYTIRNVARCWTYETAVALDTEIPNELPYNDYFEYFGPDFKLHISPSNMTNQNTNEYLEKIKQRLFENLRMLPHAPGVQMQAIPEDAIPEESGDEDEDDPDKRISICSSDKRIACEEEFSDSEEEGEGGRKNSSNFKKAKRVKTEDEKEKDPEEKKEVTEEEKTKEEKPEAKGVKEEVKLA
Method: (§2) The in vitro testing on recombinant HDACs was performed as previously described. Recombinant human HDAC1 and −6 were purchased from BPS Biosciences. The enzyme inhibition was determined by using a reported homogenous fluorescence assay. […] Fluorescence intensity was measured at an excitation wavelength of 390 nm and an emission wavelength of 460 nm in a microtiter plate reader (BMG Polarstar).
as §1

| SMILES | IC50 |
| --- | --- |
| COc1ccc(C(=O)NO)cc1NC(=O)c1ccc(NC(=O)CCCCCNc2cccc3c2C(=O)N(C2CCC(=O)NC2=O)C3=O)cc1 (stereo not drawn) [CRBN_1a] | 4370 ± 650 nM |
| Cc1ccc(C(=O)NO)cc1NCc1ccc(OCc2cn(CCCCCC(=O)Nc3cccc4c3C(=O)N(C3CCC(=O)NC3=O)C4=O)nn2)cc1 (stereo not drawn) [CRBN_1d] | 13100 ± 600 nM |

same assay, conditions: Table 1, PROTACs; read-out: HDAC1 IC50

| IC50 | SMILES |
| --- | --- |
| 10800 ± 700 nM | O=C1CCC(N2C(=O)c3cccc(NC(=O)CCCCCn4cc(COc5ccc(CNc6cc(C(=O)NO)ccc6Cl)cc5)nn4)c3C2=O)C(=O)N1 (stereo not drawn) [CRBN_1f] |

target: T2, HDAC6 (Homo sapiens, UniProt Q9UBN7); assay: In vitro HDAC inhibitory activity assay, recombinant HDAC6 (fluorogenic substrate ZMAL); type: biochemical; set-up: purchased BPS Biosciences; settings: not given
T2 sequence (Q9UBN7 1-1215): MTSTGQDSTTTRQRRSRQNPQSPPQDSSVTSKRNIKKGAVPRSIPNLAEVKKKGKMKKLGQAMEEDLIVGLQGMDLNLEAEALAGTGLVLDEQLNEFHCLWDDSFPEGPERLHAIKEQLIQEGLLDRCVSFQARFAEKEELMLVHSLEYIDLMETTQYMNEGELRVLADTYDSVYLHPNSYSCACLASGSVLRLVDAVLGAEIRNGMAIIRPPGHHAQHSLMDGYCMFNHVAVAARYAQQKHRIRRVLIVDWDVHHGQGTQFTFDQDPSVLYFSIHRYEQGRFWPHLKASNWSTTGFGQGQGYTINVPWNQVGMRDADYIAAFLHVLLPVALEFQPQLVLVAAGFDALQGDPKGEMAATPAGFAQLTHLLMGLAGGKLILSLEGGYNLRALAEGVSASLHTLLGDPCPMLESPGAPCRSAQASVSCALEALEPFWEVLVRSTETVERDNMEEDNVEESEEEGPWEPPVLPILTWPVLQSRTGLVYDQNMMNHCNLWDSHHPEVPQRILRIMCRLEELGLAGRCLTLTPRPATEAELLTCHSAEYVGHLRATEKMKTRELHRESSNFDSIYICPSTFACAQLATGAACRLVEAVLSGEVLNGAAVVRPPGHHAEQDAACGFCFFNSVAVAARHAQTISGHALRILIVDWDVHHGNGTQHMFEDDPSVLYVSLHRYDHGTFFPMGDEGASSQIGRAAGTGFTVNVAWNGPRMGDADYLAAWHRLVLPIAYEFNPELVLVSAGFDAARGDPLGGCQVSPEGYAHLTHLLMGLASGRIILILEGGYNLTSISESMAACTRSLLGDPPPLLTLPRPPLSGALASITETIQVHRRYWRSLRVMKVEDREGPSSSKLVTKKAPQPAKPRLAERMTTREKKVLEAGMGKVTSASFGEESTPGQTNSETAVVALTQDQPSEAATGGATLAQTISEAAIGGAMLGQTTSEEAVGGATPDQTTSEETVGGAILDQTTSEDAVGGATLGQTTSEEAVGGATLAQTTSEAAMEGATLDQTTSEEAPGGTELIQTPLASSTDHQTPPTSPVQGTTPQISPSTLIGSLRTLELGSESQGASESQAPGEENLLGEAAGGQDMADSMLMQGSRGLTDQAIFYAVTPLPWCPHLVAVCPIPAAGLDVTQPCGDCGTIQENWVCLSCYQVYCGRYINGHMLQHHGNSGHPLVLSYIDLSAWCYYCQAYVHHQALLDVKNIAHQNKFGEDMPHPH
Method: as §2, §1

| SMILES | IC50 |
| --- | --- |
| COc1ccc(C(=O)NO)cc1NC(=O)c1ccc(NC(=O)CCCCCNc2cccc3c2C(=O)N(C2CCC(=O)NC2=O)C3=O)cc1 (stereo not drawn) [CRBN_1a] | 220 ± 60 nM |
| Cc1ccc(C(=O)NO)cc1NCc1ccc(OCc2cn(CCCCCC(=O)Nc3cccc4c3C(=O)N(C3CCC(=O)NC3=O)C4=O)nn2)cc1 (stereo not drawn) [CRBN_1d] | 6700 ± 600 nM |

same assay, conditions: Table 1, PROTACs; read-out: HDAC6 IC50

| IC50 | SMILES |
| --- | --- |
| 1300 ± 300 nM | O=C1CCC(N2C(=O)c3cccc(NC(=O)CCCCCn4cc(COc5ccc(CNc6cc(C(=O)NO)ccc6Cl)cc5)nn4)c3C2=O)C(=O)N1 (stereo not drawn) [CRBN_1f] |

target: T1, HDAC8; assay: HDAC8 degradation in SK-N-BE(2)-C neuroblastoma cells (Western blot); type: cell-based; set-up: endogenous in cells; host or cells: SK-N-BE(2)-C; settings: SK-N-BE(2)-C cells, up to 10 µM, Western blot
Method: Whole cell lysates from treated SK-N-BE(2)-C neuroblastoma cells were taken and the protein levels for HDAC8 and the acetylation of its substrate SMC3 were determined (Figure 6). As a control for HDAC6, we also assessed acetylation levels of α-tubulin. […] Western blot analysis was performed as described previously (Kolbinger et al.).
Figure 6 (A) SK-N-BE(2)-C neuroblastoma cells were treated for indicated time points with 10 µM of PROTACs. Degradation of HDAC8 and acetylation of HDAC8 target was analyzed via Western blot. (B) SK-N-BE(2)-C neuroblastoma cells were treated for 6 h with indicated concentrations of HyT_1p, CRBN_1b and HyT_1m. Acetylation of HDAC8 target SMC3 and HDAC6 target tubulin, as well as total HDAC8 levels, were assessed by Western blot. Quantified ac-SMC3 or ac-tubulin expression, respectively, was normalized to the respective tubulin loading control and to the solvent control (DMSO). This quantification is reflected by the numbers below each blot. […] Total HDAC6, total HDAC1, total HDAC8, and acetyl-histone H4 expression levels, were assessed by Western blot. Total GAPDH protein levels served as a loading control (LC). * unspecific bands obtained through reprobing of the membrane.

| SMILES | HDAC8 degradation |
| --- | --- |
| Cc1ccc(C(=O)NO)cc1NCc1ccc(OCc2cn(CCCCCC(=O)Nc3cccc4c3C(=O)N(C3CCC(=O)NC3=O)C4=O)nn2)cc1 (stereo not drawn) [CRBN_1d] | failed to degrade HDAC8 |
